{"source": "patent US11197931B2", "about": "“Liquid injectable copolymer” (Queen's University at Kingston, priority 2017, dated 2021)", "origin": "cited, not measured here", "details": "25° C."}
{"smiles": "C[C@]12C=CC(=O)C=C1CC[C@H]1[C@@H]3C[C@@H](O)[C@](O)(C(=O)CO)[C@@]3(C)C[C@H](O)[C@@]12F", "note": "[triamcinolone]", "values": [{"measurement": "saturation concentration", "result": 80, "unit": "mg/L"}]}
